Measurements published in patent publication US12533338B2, “Enhanced gene delivery to natural killer cells, hematopoietic stem cells and macrophages” (priority 2015, dated 2026).
“Also recorded” adds a separate entry of the source. Where two headings read alike, the source gives them in different places.

What was measured:
NK cells [1] = assay: Annexin-V/PI staining for toxicity; type: cell-based; conditions: for toxicity on NK cells (apoptotic and dead cells) compared to DMSO controls: 1.5 μM; for toxicity on NK cells (apoptotic and dead cells): 6 μM
Description: FIG. 2B contains two bar graphs comparing apoptotic to dead Annexin −V^+/PI^−cells.
Remarkably, the use of iX at the optimum concentration presents no immediate toxic effects on NK cells as determined by Annexin-V/PI staining after […] treatment (FIG. 2b).

RIG-I = RIG-I expression at protein level during lentiviral transduction; type: cell-based; conditions: for change in RIG-I expression at the protein level: after the 6 hour transduction period; for change in RIG-I expression: at 24 hours, FIG. 3
Description: (§1) FIG. 3 contains photos of a gel showing iX treatment during lentiviral transduction decreases RIG-I and IRF-3.

NK-92 cells [2] = assay: Gene expression profiling by RNAseq during lentiviral transduction; type: cell-based, human; conditions: end of 6 hour transduction, FIGS. 6A-H
Experimental: Gene expression profiling by RNAseq for identification of pathways triggered by lentivirus entry in the absence and presence of small molecule inhibitors are assessed. NK-92 cells are transduced as previously described. At the end of the 6 hour transduction protocol, RNA from the cells is extracted and sequenced on a HiSeq 2500 instrument. After quality control, the reads are mapped to the human genome using the STAR aligner and gene abundance is estimated with HT-Seq. Differential expression is analyzed using DeSeq software. […] (FIG. 5).

NK92 cells = assay: IFNγ secretion upon exposure to lentiviral particles; type: cell-based, human; conditions: FIG. 4
Description: FIG. 4 contains two bar graphs showing that iX treatment interferes with anti-viral cytokines IFNγ and TNF secretion.
(FIG. 4). […] (FIG. 4). […] (FIG. 4).

IRF3 = IRF3 expression at protein level during lentiviral transduction; type: cell-based; conditions: for change in IRF3 expression at the protein level: after the 6 hour transduction period; for change in IRF3 expression: at 24 hours, FIG. 3
Description: as §1

NK cells [3] = assay: Dose dependence of lentiviral transduction with LeGO-G2 virus, GFP+ cells by flow cytometry; type: cell-based, human
Experimental: Primary human NK cells and NK-92 cells are transduced with LeGO-G2 virus in the presence of varying doses of BX795 or iX for 6 hours. GFP expression is analyzed by flow cytometry 72 hours after transduction. GFP+ cell percentages are shown on graph. Data from three independent experiments, each run in triplicates.
For each lentiviral transduction, 0.25×10^6 NK cells per well were seeded in a 24-well plate (BD Biosciences) and mixed with an appropriate amount of virus supernatant in the presence of 8 μg/ml of protamine sulfate (Sigma-Aldrich) or polybrene (Sigma-Aldrich) in a final volume of no more than 1 ml. The cytokines were replenished and plates were centrifuged at 1000×g for 1 hour at room temperature. After centrifugation, without removing viral supernatants, the plates were incubated at 37° C., 5% CO2 for 4-6 hours. At the end of the incubation, a second centrifugation at 1000×g for 1 hour at room temperature was carried out, after which the supernatants were removed from the wells and 1 ml of fresh NK cell growth medium (CellGro SCGM supplemented with 10% Human AB Serum) per well was added. The cells were maintained in this medium with daily addition cytokines (IL-2: 1000 U/ml, and IL-21: 20 ng/ml. Combinations of cytokines were used as indicated in FIG. 1. Only IL-2 and IL-21 were used in the rest of the experiments) for at least 3 days before acquisition of eGFP expression was carried out. In indicated experiments, the following inhibitors were present during the transduction: BX795 (Invivogen) and (5Z)-7-Oxozeaenol (iX) (Tocris).
For the transduction of cell lines, 2×10^5 cells per well were seeded into 24-well plates. Treatment with 6 μM BX795 and (5Z)-7-Oxozeaenol (iX) was initiated simultaneously with the transduction process. Appropriate amount of viral supernatants were added into the wells along with protamine sulfate (NK92, cells) and the total volume was adjusted to 500 μl. The plates were centrifuged at 1000×g for 1 hour followed by incubation at 37° C., 5% CO2 for 4-6 hours, after which the virus containing supernatant was removed and fresh growth media was added. The cells were grown for at least 3 days before acquisition of eGFP expression was carried out.
All antibody stainings for flow cytometry were done according to the following protocol: For surface stainings, the cells were washed once with PBS and incubated with appropriate amounts of antibody at 4° C. for 30 min. The labeled cells were then washed with PBS and fixed in 1% PFA prior to data acquisition. Data acquisition was done on a FACSCalibur (BD Biosciences), CyFlow ML (Partec GmbH, Munster, Germany) and LSRII-Fortessa (BD Biosciences) with standard filters. Data were analysed with the FlowJo software (TreeStar Inc.). […]

NK cells [4] = conditions: cited from earlier work
primary human NK cells = assay: Lentiviral transduction (LeGO-G2, GFP expression) of primary NK cells; type: cell-based; conditions: 6 μM during lentiviral transduction, FIG. 1
Experimental: (§2) FIG. 1 contains two bar graphs showing the inhibition of innate immune signaling with iX enhances lentiviral transduction efficiency in NK cells. NK-92 cells and primary human NK cells isolated from healthy donor PBMCs were subjected to lentiviral transduction in the presence of 6 μM BX795 or iX for 6 hours. GFP expression is acquired 72 hours later. +cell percentages are shown on graph.
[…]. Next day cells were transfected with 30 μg of LeGO-G2 plasmid (courtesy of Prof. Boris Fehse, University Medical Center Hamburg-Eppendorf, Hamburg, Germany), 15 μg of pMDLg/pRRE (Addgene, Cambridge, Mass., USA), 10 μg of pRSV-REV (Addgene) and 5 μg of phCMV-VSV-G (Addgene) using calcium phosphate transfection kit (Sigma-Aldrich) in the presence of 25 μM Chloroquine (Sigma-Aldrich). […]
The peripheral blood mononuclear cells (PBMCs) were isolated by gradient centrifugation, using Lymphoprep (Nyegaard, Oslo, Norway) and washed twice with phosphate-buffered saline (PBS) (GIBCO, Grand Island, N.Y., USA). Cell count and viability were assessed by Turk and Trypan Blue dye exclusion. […]
(§3) All antibody stainings for flow cytometry were done according to the following protocol: For surface stainings, the cells were washed once with PBS and incubated with appropriate amounts of antibody at 4° C. for 30 min. […] Data were analysed with the FlowJo software (TreeStar Inc.). […]

NK92 cell line = assay: CRISPR/Cas9 gene editing of Beta 2 Microglobulin, loss of B2M expression by flow cytometry; type: cell-based, human; conditions: 1 μM iX, NK cells (NK92), FIG. 7, n=4
Description: (§4) The recent emergence of the clustered, regularly interspaced, palindromic repeats (CRISPR) system for gene editing has the potential to overcome these limitations. The CRISPR technology utilizes a fixed nuclease, often the CRISPR-associated protein 9 (Cas9) from Streptococcus pyogenes, in combination with a short guide RNA (gRNA) to target the nuclease to a specific DNA sequence. We confirmed that gRNA recognition and thus editing efficacy could be increased with introduction of iX inhibitor. […]
(§5) The following commercially available guide RNAs from Origene Technologies were tested against Beta 2 Microglobulin: […] […] 48 hours post-transfection, cells were stained with anti-B2M antibody (clone:2M2, Biolegend) to compare loss of (32 m expression. Cells were then analysed using flowcytometry as described below.
as §3

CD34+ HSCs = assay: as above; type: cell-based, human; conditions: 1 μM iX, hematopoietic stem cells, FIG. 7, n=4
Description: as §4, §5, §3

[5] = test system: Human primary macrophages; assay: as above; type: cell-based; conditions: 1 μM iX, FIG. 7, n=4
Description: as §4, §5, §3

NK-92 cells [6] = assay: Lentiviral transduction (GFP expression) of NK-92 cell line; type: cell-based, human; conditions: 6 μM during lentiviral transduction, NK-92, FIG. 1
Experimental: as §2
[…]. Next day cells were transfected with 30 μg of LeGO-G2 plasmid (courtesy of Prof. Boris Fehse, University Medical Center Hamburg-Eppendorf, Hamburg, Germany), 15 μg of pMDLg/pRRE (Addgene, Cambridge, Mass., USA), 10 μg of pRSV-REV (Addgene) and 5 μg of phCMV-VSV-G (Addgene) using calcium phosphate transfection kit (Sigma-Aldrich) in the presence of 25 μM Chloroquine (Sigma-Aldrich). 10 hours after transfection, the medium was changed and thereafter virus containing supernatant was collected every 24 hours for 2-3 days and stored in −80° C. until further use. A small aliquot from each production was used to determine viral titers by transduction of 293FT cells with serially diluted amounts of virus supernatant. […]
as §3

| SMILES | toxicity on NK cells (apoptotic and dead cells) compared to DMSO controls (NK cells [1]) | toxicity on NK cells (apoptotic and dead cells) (NK cells [1]) | change in RIG-I expression at the protein level (RIG-I) | change in RIG-I expression (RIG-I) | effect on anti-viral response pathways at mRNA level (NK-92 cells [2]) | change in IRF3 expression at the protein level (IRF3) | change in IRF3 expression (IRF3) | optimum dose for lentiviral gene delivery (NK cells [3]; NK cells) [µM] | other results |
| --- | --- | --- | --- | --- | --- | --- | --- | --- | --- |
| O=C(NCCCNc1nc(Nc2cccc(NC(=O)N3CCCC3)c2)ncc1I)c1cccs1 [BX795] | no toxicity | quite small but statistically significant increase | not detectable | significant decrease | failed to fully suppress similar anti-viral responses | not detectable | significant decrease | 6 | secretion of IFNγ (NK92 cells; 24 hours after exposure to lentiviral particles): significantly trigger similar effect; transduction efficiency in NK cells (NK cells [4]; previously reported (Sutlu et al., 2012)): dramatically increases; effect of concentration on genetic modification efficiency (NK cells [4]; shown previously): dose-dependent effect |
| COc1cc(O)c2c(c1)/C=C/C[C@H](O)[C@H](O)C(=O)/C=C\C[C@H](C)OC2=O [iX, (5Z)-7-Oxozeaenol] | no significant toxicity | no signs of immediate toxicity | not detectable | significant decrease | affected pathways associated with anti-viral responses | not detectable | significant decrease | 1.5 | extent of downregulation in RIG-I compared to BX795 (RIG-I): significantly more; secretion of IFNγ (NK92 cells; six hours, during lentiviral gene delivery): significantly decreased; improvement in lentiviral gene delivery (primary human NK cells): statistically significant improvement; extent of downregulation in IRF3 compared to BX795 (IRF3): significantly more; β2M gene editing efficacy (NK92 cell line): increased (32M editing significantly; β2M gene editing efficacy (CD34+ HSCs): increased (32M editing significantly; enhancement of lentiviral gene delivery compared to BX795 (NK cells [3]; NK cells): to a further extent; also recorded: significantly higher extent; effect of concentration on genetic modification efficiency (NK cells [3]; varying doses, FIG. 2A): dose-dependent effect; β2M gene editing efficacy [5]: increased (32M editing significantly; improvement in lentiviral gene delivery (NK-92 cells [6]): statistically significant improvement |
